Target: T1, ACE (Angiotensin-Converting Enzyme) of rat kidney preparations (Rattus norvegicus, UniProt P47820)
T1 construct: compound- or vehicle-dosed rat kidney preparations; from tissue; host or cells: kidney of male Sprague-Dawley rats
T1 sequence (P47820 36-1313): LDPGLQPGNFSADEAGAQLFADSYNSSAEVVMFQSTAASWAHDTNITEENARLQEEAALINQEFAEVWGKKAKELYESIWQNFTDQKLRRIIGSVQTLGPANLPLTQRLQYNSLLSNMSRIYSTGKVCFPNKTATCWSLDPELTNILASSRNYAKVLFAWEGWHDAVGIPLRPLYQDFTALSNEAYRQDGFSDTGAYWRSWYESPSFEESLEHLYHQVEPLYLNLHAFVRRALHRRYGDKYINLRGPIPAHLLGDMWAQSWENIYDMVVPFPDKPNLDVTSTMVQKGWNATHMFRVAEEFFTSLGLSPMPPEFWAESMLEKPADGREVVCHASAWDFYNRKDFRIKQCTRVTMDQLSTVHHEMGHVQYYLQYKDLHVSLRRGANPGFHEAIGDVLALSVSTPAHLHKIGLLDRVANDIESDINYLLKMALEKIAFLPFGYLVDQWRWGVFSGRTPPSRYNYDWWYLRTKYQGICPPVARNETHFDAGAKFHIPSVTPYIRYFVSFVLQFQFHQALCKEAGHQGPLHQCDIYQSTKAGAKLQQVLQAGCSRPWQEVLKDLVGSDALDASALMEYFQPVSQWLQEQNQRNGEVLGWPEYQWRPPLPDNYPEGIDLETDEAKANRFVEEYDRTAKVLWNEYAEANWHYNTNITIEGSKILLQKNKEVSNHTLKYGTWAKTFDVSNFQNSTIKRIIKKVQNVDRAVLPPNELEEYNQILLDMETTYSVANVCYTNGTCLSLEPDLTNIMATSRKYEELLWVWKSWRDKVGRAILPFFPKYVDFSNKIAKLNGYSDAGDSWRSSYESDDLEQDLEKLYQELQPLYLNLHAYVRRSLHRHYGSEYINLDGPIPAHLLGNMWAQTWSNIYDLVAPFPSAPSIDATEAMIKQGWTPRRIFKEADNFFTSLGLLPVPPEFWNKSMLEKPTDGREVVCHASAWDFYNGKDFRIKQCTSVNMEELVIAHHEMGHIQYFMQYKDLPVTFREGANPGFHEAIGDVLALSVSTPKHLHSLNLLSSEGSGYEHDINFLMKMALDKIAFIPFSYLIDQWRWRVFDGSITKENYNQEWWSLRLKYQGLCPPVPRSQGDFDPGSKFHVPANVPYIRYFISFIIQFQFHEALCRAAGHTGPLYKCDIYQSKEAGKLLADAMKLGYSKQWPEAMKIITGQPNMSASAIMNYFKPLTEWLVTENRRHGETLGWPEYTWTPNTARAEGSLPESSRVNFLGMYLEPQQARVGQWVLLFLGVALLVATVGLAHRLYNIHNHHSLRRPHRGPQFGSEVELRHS
Experiment: Radiometric ACE activity assay on rat kidney preparations
Format: biochemical, rat (Sprague-Dawley)
Details: 1 μM enalaprilat; substrate tritiated hippuryl-glycyl-glycine; compound- or vehicle-dosed rat kidney preparations

## C[C@H](N[C@@H](CCc1ccccc1)C(=O)O)C(=O)N1CCC[C@H]1C(=O)O [enalaprilat]
  inhibition of radioactive product formation: Complete inhibition
